# Active and inactive are the calls of the source. The rule behind the calls is not given here.
# How the values were obtained:
# Mus musculus [1] = assay: Antiinflammatory activity in BALB/cJ mouse assessed as inhibition of LPS-induced GM-CSF production in lung homogenates at 200 mg/kg, ip administered 2 hrs prior to LPS challenge; format: functional, organism-based; set-up: dose 200 mg/kg
# Mus musculus [2] = assay: Antiinflammatory activity in BALB/cJ mouse assessed as inhibition of LPS-induced CCL2 production in lung homogenates at 200 mg/kg, ip administered 2 hrs prior to LPS challenge; format: functional, organism-based; set-up: dose 200 mg/kg
# Mus musculus [3] = assay: Antiinflammatory activity in BALB/cJ mouse assessed as inhibition of LPS-induced IL-1beta production in lung homogenates at 200 mg/kg, ip administered 2 hrs prior to LPS challenge; format: functional, organism-based; set-up: dose 200 mg/kg
# [4] = Clearance in BALB/cJ mouse at 5 mg/kg, iv and 25 mg/kg, po; format: ADME, organism-based; conditions: in vivo
# [5] = Volume of distribution at steady state in BALB/cJ mouse at 5 mg/kg, iv and 25 mg/kg, po; format: ADME, organism-based; conditions: in vivo, read-out: Vdss
# [6] = Half life in BALB/cJ mouse at 5 mg/kg, iv and 25 mg/kg, po; format: ADME, organism-based; conditions: in vivo
# [7] = Oral bioavailability in BALB/cJ mouse at 25 mg/kg; format: ADME, organism-based; conditions: in vivo
# [8] = Clearance in Sprague-Dawley rat at 2 mg/kg, iv and 10 mg/kg, po; format: ADME, organism-based; conditions: in vivo
# [9] = Volume of distribution at steady state in Sprague-Dawley rat at 2 mg/kg, iv and 10 mg/kg, po; format: ADME, organism-based; conditions: in vivo, read-out: Vdss
# [10] = Half life in Sprague-Dawley rat at 2 mg/kg, iv and 10 mg/kg, po; format: ADME, organism-based; conditions: in vivo
# [11] = Oral bioavailability in Sprague-Dawley rat at 10 mg/kg; format: ADME, organism-based; conditions: in vivo
# Streptococcus pyogenes = assay: Antibacterial activity against Streptococcus pyogenes ATCC 700294 by CLSI broth microdilution method; format: functional
# [12] = Antiinflammatory activity in mouse splenocytes assessed as inhibition of LPS-induced IL-6 production at 50 uM preincubated for 2 hrs prior to LPS challenge by sandwich ELISA; format: functional; conditions: Splenocyte
# [13] = Cytotoxicity against human THP1 cells assessed as cell viability at 50 uM after 24 hrs by MTT assay; format: cell-based, THP-1; conditions: read-out: Activity
# Mus musculus [14] = assay: Antiinflammatory activity in BALB/cJ mouse assessed as inhibition of LPS-induced TNFalpha level in lung homogenates at 200 mg/kg, ip administered 2 hrs prior to LPS challenge; format: functional, organism-based; set-up: dose 200 mg/kg
# Mus musculus [15] = assay: Antiinflammatory activity in BALB/cJ mouse assessed as inhibition of LPS-induced CXCL2 production in lung homogenates at 200 mg/kg, ip administered 2 hrs prior to LPS challenge; format: functional, organism-based; set-up: dose 200 mg/kg
# Mus musculus [16] = assay: Antiinflammatory activity in BALB/cJ mouse assessed as inhibition of LPS-induced CXCL1 production in lung homogenates at 200 mg/kg, ip administered 2 hrs prior to LPS challenge; format: functional, organism-based; set-up: dose 200 mg/kg
# [17] = Antiinflammatory activity in mouse splenocytes assessed as inhibition of LPS-induced IL-6 production in mouse splenocytes at 25 uM preincubated for 2 hrs prior to LPS challenge by sandwich ELISA; format: functional; conditions: Splenocyte
# [18] = Antiinflammatory activity in mouse splenocytes assessed as inhibition of LPS-induced IL-6 production at 12 uM preincubated for 2 hrs prior to LPS challenge by sandwich ELISA; format: functional; conditions: Splenocyte
# Mus musculus [19] = assay: Antiinflammatory activity in ip dosed BALB/cJ mouse assessed as decrease in LPS-induced total cell number in bronchoalveolar lavage fluid administered 2 hrs prior to LPS challenge measured after 24 hrs post LPS challenge; format: functional, organism-based; conditions: Lung
# Mus musculus [20] = assay: Antiinflammatory activity in ip dosed BALB/cJ mouse assessed as decrease in LPS-induced neutrophil number in bronchoalveolar lavage fluid administered 2 hrs prior to LPS challenge measured after 24 hrs post LPS challenge; format: functional, organism-based; conditions: Lung
# Mus musculus [21] = assay: Antiinflammatory activity in BALB/cJ mouse assessed as inhibition of LPS-induced IL-6 production in lung homogenates at 200 mg/kg, ip administered 2 hrs prior to LPS challenge; format: functional, organism-based; set-up: dose 200 mg/kg
# Cytochrome P450 3A4 [22] = target: T1, Cytochrome P450 3A4 (Homo sapiens, UniProt P08684)
# Description: Inhibition of human recombinant CYP3A4 using DEF as substrate preincubated for 5 to 10 mins before substrate addition
# Cytochrome P450 3A4 [23] = target: T1, Cytochrome P450 3A4; remark: listed apart in the source
# Description: Inhibition of human recombinant CYP3A4 using 7-BQ as substrate preincubated for 5 to 10 mins before substrate addition
# T1 sequence (P08684 whole entry): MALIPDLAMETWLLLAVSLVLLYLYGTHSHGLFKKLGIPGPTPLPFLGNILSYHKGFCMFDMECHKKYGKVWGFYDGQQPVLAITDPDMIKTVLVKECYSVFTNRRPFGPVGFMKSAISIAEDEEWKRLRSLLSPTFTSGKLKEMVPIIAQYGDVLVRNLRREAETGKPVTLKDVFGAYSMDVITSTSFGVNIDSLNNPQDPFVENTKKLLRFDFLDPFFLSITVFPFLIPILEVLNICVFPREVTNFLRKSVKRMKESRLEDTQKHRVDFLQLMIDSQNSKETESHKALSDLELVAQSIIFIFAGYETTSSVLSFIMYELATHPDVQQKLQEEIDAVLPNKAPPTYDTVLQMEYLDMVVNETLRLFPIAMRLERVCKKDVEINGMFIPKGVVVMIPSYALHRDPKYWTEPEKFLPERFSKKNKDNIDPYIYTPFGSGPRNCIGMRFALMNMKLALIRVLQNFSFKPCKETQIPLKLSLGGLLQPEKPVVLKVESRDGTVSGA
smiles,measurement,setting,value
CC[C@H]1OC(=O)[C@H](C)[C@@H](O[C@H]2C[C@@](C)(OC)[C@@H](O)[C@H](C)O2)[C@H](C)[C@@H](O[C@@H]2O[C@H](C)C[C@H]3[C@H]2O/C(=N\C(C)C)N3C)[C@](C)(O)C[C@@H](C)CN(C)[C@H](C)[C@@H](O)[C@]1(C)O,inhibition,Mus musculus [1],Active
same,inhibition,Mus musculus [2],Active
same,inhibition,Mus musculus [3],Active
same,clearance,[4],19.8 mL/min/kg
same,Vd,[5],23 L/kg
same,half-life,[6],17.3 h
same,bioavailability,[7],62%
same,clearance,[8],12.3 mL/min/kg
same,Vd,[9],8.6 L/kg
same,half-life,[10],20.3 h
same,bioavailability,[11],33%
same,MIC,Streptococcus pyogenes,> 64 µg/mL
same,inhibition at 50 µM,[12],95%
same,"viability at 24 h, 50 µM",[13],9%
same,inhibition,Mus musculus [14],Active
same,inhibition,Mus musculus [15],Active
same,inhibition,Mus musculus [16],Active
same,inhibition at 25 µM,[17],90%
same,inhibition at 12 µM,[18],79%
same,Activity,Mus musculus [19],Dose-dependent effect
same,Activity,Mus musculus [20],Dose-dependent effect
same,inhibition,Mus musculus [21],Active
same,IC50,Cytochrome P450 3A4 [22],7.8 µM
same,IC50,Cytochrome P450 3A4 [23],> 10 µM
